Source: the supplement of paper PMC10933113
Counter-ions that a name gives are not always drawn. ± gives the uncertainty stated by the source.

How the values were obtained:
[1] = test system: THP-1; experiment: AC50 of IL-8 secretion induction; higher = less potent; conditions: exposure time: 18 h
[2] = test system: KeratinoSens (HaCaT ARE-luciferase) cells; experiment: AC50 of Nrf2/ARE luciferase induction; higher = less potent; conditions: exposure time: 24 h
[3] = test system: THP-1; experiment: efficacy of IL-8 induction relative to DMSO (% activity); higher = stronger induction; conditions: exposure time: 18 h
[4] = test system: lysine peptide Ac-RFAAKAA-COOH; experiment: efficacy of lysine peptide change (negative = depletion) (% activity); higher = less depletion; conditions: incubation time: 24 h
[5] = test system: cysteine peptide Ac-RFAACAA-COOH; experiment: efficacy of cysteine peptide change (negative = depletion) (% activity); higher = less depletion; conditions: incubation time: 24 h
[6] = test system: KeratinoSens (HaCaT ARE-luciferase) cells; experiment: efficacy of ARE luciferase induction relative to DMSO (% activity over DMSO); higher = stronger induction; conditions: exposure time: 24 h
[7] = test system: cysteine peptide Ac-RFAACAA-COOH; experiment: AC50 of cysteine peptide concentration-response (direction given by sign of efficacy); higher = less potent; conditions: incubation time: 24 h
[8] = test system: KeratinoSens (HaCaT ARE-luciferase) cells; experiment: cytotoxicity AC50 (CellTiter-Fluor viability); higher = less cytotoxic; conditions: exposure time: 24 h

Sc1nc2ccccc2s1 [2-Mercaptobenzothiazole]
AC50 of IL-8 secretion induction [1]: 28.3 µM
AC50 of Nrf2/ARE luciferase induction [2]: 20.7 µM
efficacy of IL-8 induction [3]: 21.3 ± 41
efficacy of lysine peptide change [4]: 40.3 ± 17
efficacy of cysteine peptide change [5]: -86.4 ± 10
efficacy of ARE luciferase induction [6]: 87.1 ± 23
AC50 [7]: 32.9 ± 2.2 µM

O=[N+]([O-])c1cc(C(F)(F)F)c(Cl)c([N+](=O)[O-])c1Cl [2,4-Dichloro-1,3-dinitro-5-(trifluoromethyl)benzene]
AC50 of IL-8 secretion induction [1]: 17.2 µM
cytotoxicity AC50 [8]: 26.1 ± 1.8 µM
efficacy of IL-8 induction [3]: 64.7 ± 13
efficacy of lysine peptide change [4]: 251 ± 34
efficacy of cysteine peptide change [5]: -83.7 ± 9
efficacy of ARE luciferase induction [6]: -10.8 ± 42
AC50 [7]: 23.8 ± 18 µM

CC(C)CC(C)Nc1ccc(Nc2ccccc2)cc1 (centres undefined) [N-(1,3-Dimethylbutyl)-N'-phenyl-p-phenylenediamine]
AC50 of IL-8 secretion induction [1]: 32.9 µM
AC50 of Nrf2/ARE luciferase induction [2]: 26.4 µM
cytotoxicity AC50 [8]: 38.5 ± 5.3 µM
efficacy of IL-8 induction [3]: 29.6 ± 1.7
efficacy of lysine peptide change [4]: 2.97 ± 5.1
efficacy of cysteine peptide change [5]: -77.3 ± 10
efficacy of ARE luciferase induction [6]: 148 ± 100
AC50 [7]: 0.88 ± 0.99 µM

CCCOc1ccc2[nH]c(NC(=O)OC)nc2c1 [Oxibendazole]
AC50 of IL-8 secretion induction [1]: 27.7 µM
cytotoxicity AC50 [8]: 2.73 ± 0.38 µM
efficacy of IL-8 induction [3]: 36.3 ± 9.3
efficacy of lysine peptide change [4]: 50.4 ± 6.8
efficacy of cysteine peptide change [5]: 0
efficacy of ARE luciferase induction [6]: 30.2 ± 9.6

CCS(=O)(=O)CCSP(=O)(OC)OC [Demeton-S-methylsulphon]
AC50 of IL-8 secretion induction [1]: 30.7 µM
AC50 of Nrf2/ARE luciferase induction [2]: 19 µM
cytotoxicity AC50 [8]: 22.5 ± 2.6 µM
efficacy of IL-8 induction [3]: 108 ± 5.1
efficacy of lysine peptide change [4]: -8 ± 20
efficacy of cysteine peptide change [5]: -43.5 ± 12
efficacy of ARE luciferase induction [6]: 28.1 ± 59

CNc1ccc(O)cc1 [4-(Methylamino)phenol Sulfate]
AC50 of IL-8 secretion induction [1]: 46.7 µM
cytotoxicity AC50 [8]: 27.3 ± 3.8 µM
efficacy of IL-8 induction [3]: 8.27 ± 13
efficacy of lysine peptide change [4]: -10.9 ± 3
efficacy of cysteine peptide change [5]: -82.7 ± 14
efficacy of ARE luciferase induction [6]: 65.8 ± 4.2
AC50 [7]: 0.16 ± 0.06 µM

O=c1n(CC2CO2)c(=O)n(CC2CO2)c(=O)n1CC1CO1 (centres undefined) [Triglycidyl isocyanurate]
AC50 of IL-8 secretion induction [1]: 36.9 µM
AC50 of Nrf2/ARE luciferase induction [2]: 14.1 µM
cytotoxicity AC50 [8]: 28.3 ± 3.2 µM
efficacy of IL-8 induction [3]: 157 ± 24
efficacy of lysine peptide change [4]: 35 ± 20
efficacy of cysteine peptide change [5]: -3.96 ± 6.9
efficacy of ARE luciferase induction [6]: 90.3 ± 20

COc1cc(/C=C2\CCC/C(=C\c3ccc(O)c(OC)c3)C2=O)ccc1O [Cyclovalone]
AC50 of IL-8 secretion induction [1]: 40 µM
AC50 of Nrf2/ARE luciferase induction [2]: 15.8 µM
cytotoxicity AC50 [8]: 22.5 ± 2.6 µM
efficacy of IL-8 induction [3]: 44.5 ± 6.9
efficacy of lysine peptide change [4]: 15.9 ± 15
efficacy of cysteine peptide change [5]: -50.1 ± 12
efficacy of ARE luciferase induction [6]: 242 ± 83
AC50 [7]: 0.87 ± 0.35 µM

CCCCNC(=S)NCCCC [N,N'-Dibutylthiourea]
AC50 of IL-8 secretion induction [1]: 89.1 µM
cytotoxicity AC50 [8]: 62 ± 25 µM
efficacy of IL-8 induction [3]: 90.2 ± 38
efficacy of lysine peptide change [4]: 85.4 ± 13
efficacy of cysteine peptide change [5]: -32.7 ± 21
efficacy of ARE luciferase induction [6]: 41.8 ± 35

CCC1OCC(COc2ccc(Oc3ccccc3)cc2)O1 (centres undefined) [Diofenolan]
AC50 of IL-8 secretion induction [1]: 34.2 µM
AC50 of Nrf2/ARE luciferase induction [2]: 13.7 µM
cytotoxicity AC50 [8]: 24.4 ± 4.2 µM
efficacy of IL-8 induction [3]: 113 ± 5.8
efficacy of lysine peptide change [4]: 0.82 ± 8.5
efficacy of cysteine peptide change [5]: 8.44 ± 17
efficacy of ARE luciferase induction [6]: 138 ± 84

CN(C)c1ccc(C(=C2C=CC(=[N+](C)C)C=C2)c2ccccc2)cc1 [Malachite green oxalate*]
AC50 of IL-8 secretion induction [1]: 15.3 µM
cytotoxicity AC50 [8]: 8.91 µM
efficacy of IL-8 induction [3]: 47.7 ± 7.8
efficacy of lysine peptide change [4]: 36.4 ± 15
efficacy of cysteine peptide change [5]: -94.9 ± 1.7
efficacy of ARE luciferase induction [6]: -37.3 ± 7.1
AC50 [7]: 4.18 ± 2 µM

c1ccc2sc(SNC3CCCCC3)nc2c1 [N-Cyclohexyl-2-benzothiazolesulfenamide]
AC50 of IL-8 secretion induction [1]: 85.9 µM
efficacy of IL-8 induction [3]: 101 ± 42
efficacy of lysine peptide change [4]: 24.6 ± 4.2
efficacy of cysteine peptide change [5]: -89.9 ± 7
efficacy of ARE luciferase induction [6]: 135 ± 140
AC50 [7]: 11.1 ± 3.1 µM

O=c1[nH]sc2cc(Cl)ccc12 [Ticlatone]
AC50 of IL-8 secretion induction [1]: 21.6 µM
cytotoxicity AC50 [8]: 13.2 ± 2.4 µM
efficacy of IL-8 induction [3]: 92.2 ± 7.7
efficacy of lysine peptide change [4]: -0.22 ± 12
efficacy of cysteine peptide change [5]: -90.5 ± 5.6
efficacy of ARE luciferase induction [6]: 55.4 ± 80
AC50 [7]: 0.65 ± 0.18 µM

O=C1c2ccccc2C(=O)C1c1ccc2ccccc2n1 [D & C Yellow II]
AC50 of IL-8 secretion induction [1]: 38.4 µM
AC50 of Nrf2/ARE luciferase induction [2]: 11.6 µM
cytotoxicity AC50 [8]: 28.2 µM
efficacy of IL-8 induction [3]: 71.4 ± 9.3
efficacy of lysine peptide change [4]: -13.8 ± 13
efficacy of cysteine peptide change [5]: -22.9 ± 5.9
efficacy of ARE luciferase induction [6]: 68.8 ± 34

C[C@@H]1O[C@@H](O[C@H]2C[C@@H](O)[C@]3(CO)[C@H]4[C@H](O)C[C@]5(C)[C@@H](C6=CC(=O)OC6)CC[C@]5(O)[C@@H]4CC[C@]3(O)C2)[C@H](O)[C@H](O)[C@H]1O [Ouabain]
AC50 of IL-8 secretion induction [1]: 2.99 µM
AC50 of Nrf2/ARE luciferase induction [2]: 0.96 µM
cytotoxicity AC50 [8]: 1.58 µM
efficacy of IL-8 induction [3]: 35.4 ± 9.9
efficacy of lysine peptide change [4]: 6.65 ± 12
efficacy of cysteine peptide change [5]: 3.17 ± 11
efficacy of ARE luciferase induction [6]: 220 ± 65

O=[N+]([O-])c1ccc(Oc2ccc(C(F)(F)F)cc2[N+](=O)[O-])cc1 [Fluorodifen]
AC50 of IL-8 secretion induction [1]: 43.1 µM
cytotoxicity AC50 [8]: 29.6 ± 5.3 µM
efficacy of IL-8 induction [3]: 109 ± 12
efficacy of lysine peptide change [4]: 2.81 ± 12
efficacy of cysteine peptide change [5]: -4.44 ± 7.7
efficacy of ARE luciferase induction [6]: 45.8 ± 80

N=C(N)NN=C(/C=C/c1ccc([N+](=O)[O-])o1)/C=C/c1ccc([N+](=O)[O-])o1 [Nitrovin]
AC50 of IL-8 secretion induction [1]: 11.6 µM
cytotoxicity AC50 [8]: 6.97 ± 1.7 µM
efficacy of IL-8 induction [3]: 63.3 ± 30
efficacy of lysine peptide change [4]: -31.7 ± 10
efficacy of cysteine peptide change [5]: -105 ± 8.6
efficacy of ARE luciferase induction [6]: 46.8 ± 140
AC50 [7]: 5.39 ± 1.6 µM

CC(C)CP(=S)(S)CC(C)C [Sodium bis(2-methylpropyl)phosphinodithioate]
AC50 of IL-8 secretion induction [1]: 38.4 µM
cytotoxicity AC50 [8]: 21.1 ± 9.9 µM
efficacy of IL-8 induction [3]: 82.4 ± 10
efficacy of lysine peptide change [4]: 108 ± 18
efficacy of cysteine peptide change [5]: -92.6 ± 1.4
efficacy of ARE luciferase induction [6]: 168 ± 27
AC50 [7]: 76.5 ± 25 µM

CC(C)=CCC1C(=O)N(c2ccccc2)N(c2ccccc2)C1=O [Feprazone]
AC50 of IL-8 secretion induction [1]: 85.9 µM
AC50 of Nrf2/ARE luciferase induction [2]: 46 µM
cytotoxicity AC50 [8]: 40 ± 4.6 µM
efficacy of IL-8 induction [3]: 60.5 ± 9.2
efficacy of lysine peptide change [4]: 0
efficacy of cysteine peptide change [5]: -88.7 ± 16
efficacy of ARE luciferase induction [6]: 281 ± 320

c1ccc2sc(SSN3CCOCC3)nc2c1 [2-(Morpholin-4-yldithio)-1,3-benzothiazole]
AC50 of IL-8 secretion induction [1]: 59.9 µM
efficacy of IL-8 induction [3]: 58 ± 8.8
efficacy of ARE luciferase induction [6]: 57.3 ± 29

O=C(Nc1ccccc1)c1cc(Cl)ccc1O [5-Chlorosalicylanilide]
AC50 of IL-8 secretion induction [1]: 35.5 µM
cytotoxicity AC50 [8]: 25.2 ± 2.9 µM
efficacy of IL-8 induction [3]: 112 ± 7.5
efficacy of lysine peptide change [4]: 77.4 ± 23
efficacy of cysteine peptide change [5]: -46 ± 19
efficacy of ARE luciferase induction [6]: -20.1 ± 52

Nc1ncn([C@@H]2O[C@H](CO)[C@@H](O)[C@H]2O)c(=O)n1 [5-Azacytidine]
AC50 of IL-8 secretion induction [1]: 41.6 µM
AC50 of Nrf2/ARE luciferase induction [2]: 18.9 µM
cytotoxicity AC50 [8]: 17.8 ± 6.3 µM
efficacy of IL-8 induction [3]: 55 ± 5.8
efficacy of lysine peptide change [4]: 6.9 ± 7.1
efficacy of cysteine peptide change [5]: 4.3 ± 7.4
efficacy of ARE luciferase induction [6]: 275 ± 140

N=C1C=CC(=C(c2ccc(N)cc2)c2ccc(N)cc2)C=C1 [C.I. Basic Red 9 monohydrochloride]
AC50 of IL-8 secretion induction [1]: 44.7 µM
cytotoxicity AC50 [8]: 34.2 ± 2.2 µM
efficacy of IL-8 induction [3]: 100 ± 9.3
efficacy of lysine peptide change [4]: 182 ± 33
efficacy of cysteine peptide change [5]: -58.7 ± 20
efficacy of ARE luciferase induction [6]: 38.6 ± 64
AC50 [7]: 38.4 ± 2.5 µM
